Assay results published in patent publication US20040063661A1, “Treatment of statin side effects” (priority 2000, published 2004).
Several values for one entry are separate records, joined by “and”; a condition that tells them apart may be missing. Equal values may be shown once. Marks after values point to notes of the source that are not given here.

Legend:
Type in all cases: in vivo, human
muscle pain = assay: Case report: Coenzyme Q10 in a patient with unexplained muscle pain and viral infections (Example 1)
Text: The patient had suffered for a number of years from unexplained muscle pain which started in the legs and gradually spread to other skeletal muscles. During the worst of the symptoms, the patient was unable to raise their arms above their head and was unable to drive a car. Walking was also difficult. […] The patient was eventually diagnosed as suffering from a number of viral infections: cytomegalovirus (CMV), Epstein-Barr virus (EBV) and hepatitis A. The patient was started on a regimen of 150 mg per day of Coenzyme Q10. […] The improvement was reported as permanent provided that the patient kept taking Q10.

chronic fatigue syndrome = assay: Case report: self assessed well being, day to day tasks and muscle pain in a chronic fatigue syndrome patient on Q10 (Example 2); conditions: for Feeling of Well Being / Absence of Muscle Pain / Heavy Work (1 hour) / Light Work/Walking / Sedentary Work / Work: teacher / Wellness Score (out of 60): Q10 2×50 mg per day; for Feeling of Well Being: self rated 0-10 (10 = best); for Absence of Muscle Pain: self rated 0-10 (10 = complete absence of pain); for Wellness Score (out of 60): sum of the six self ratings
Experimental: The patient had suffered for a number of years from chronic fatigue syndrome. The condition was severe enough such that they were unable to pursue their teaching career and day to day tasks were generally performed with a general sense of fatigue and muscle pain. Muscle pain was generally controlled with over the counter (ie. non-prescription) analgesics containing 500 mg paracetamol and 8 mg codeine phosphate, 2-4 tablets per day. Table 1 provides a summary of the patient's self assessed levels of general sense of well being, ability to perform day to day tasks and level of (or relative absence of) muscle pain during a dosing regimen of 2×50 mg per day of Q10(50 mg taken each at breakfast and dinner). Levels were rated by the patient on a scale of 0-10, with 0 representing severe incapacity or pain and 10 representing the complete absence of pain or fatigue/excellent performance. FIG. 1 depicts the self assessed (absence of) pain levels for the patient, over a period of 30 days, on a scale of […], where 0 is severe pain and 10 relates to an absence of pain (wellness). On day 1 the patient commenced taking 100 mg of Q10 per day until day 10 when the dosage was increased to 200 mg per day

[1] = system: statin induced muscle pain; assay: Pilot clinical study Q10: McGill Pain Questionnaire (PRI, PPI); conditions: for PRI (Pain Rating Index), first score / PRI (Pain Rating Index), second score: patients on statin therapy; for PRI (Pain Rating Index), first score / PRI (Pain Rating Index), second score / PPI (Present Pain Intensity): one line per patient
Text: (§1) Table 2 outlines data for four patients (numbered #1-#4) undergoing statin therapy for treatment of hypercholesterolemia and who had reported suffering from varying levels of muscular pain and fatigue. This study is ongoing, but the results below follow the study with these four patients from week minus1 (WK(-1)) to week plus 4 (WK(+4)). Patients were either contacted or attended the clinic at weeks -1, 0, +1, +2 and +4. At the clinic on the first week (WK(-1)) details of the patients' statin medication were recorded and daily doses were noted. Patients were also scored for pain using the McGill Pain Questionnaire (Melzack, R., 1975 “The McGill Pain Questionnaire: Major Properties and Scoring Methods”. Pain 1:277-299, the disclosure of which is included herein in its entirety by way of reference) scales for Pain Rating Index (PRI) and Present Pain Intensity (PPI). In the PRI index, which comprises two scores, higher scores indicate increasing levels of pain. In the PPI index present pain is given a score of 0 to 5, where 0 represents no pain and 5 represents excruciating pain. Patients were also scored at WK(-1) for fatigue using the Fatigue Impact Scale (Fisk, J. D. et al, 1994, “Measuring the functional impact of fatigue: Initial Validation of the Fatigue Impact Scale”, Clinical Infectious Disease, 18 (Suppl 1):[…]-83, the disclosure of which is included herein in its entirety by way of reference). Questionnaires to determine PRI, PPI and FIS scores were conducted thereafter at weeks +1, +2 and +4. At weeks +1 and +2 the patients were contacted by telephone and were asked to mail their self assessment questionnaires to the clinic. Commencing at WK(0) and continuing through the study the patients were asked to take a daily dose of 300 mg of Coenzyme Q10 (Q10), which was administered as […] sof gel capsules (commercially available from R. P. Scherer), morning and evening.

statin induced fatigue = assay: Pilot clinical study Q10: Fatigue Impact Scale (FIS); conditions: for FIS (Fatigue Impact Scale): one line per patient
Text: as §1

[2] = Pilot clinical study Q10: blood Q10 level (patient compliance); conditions: one line per patient
Experimental: (§2) Commencing at WK(0) and continuing through the study the patients were asked to take a daily dose of 300 mg of Coenzyme Q10 (Q10), which was administered as […] sof gel capsules (commercially available from R. P. Scherer), morning and evening.

creatine kinase = assay: Pilot clinical study Q10: blood creatine kinase concentration (measure of muscle trauma)
Experimental: as §2

alanine aminotransferase = assay: Pilot clinical study Q10: blood alanine aminotransferase concentration (measure of liver damage)
Experimental: as §2

[3] = system: serum cholesterol, HDL-cholesterol or LDL-cholesterol and triglyceride levels; assay: Pilot clinical study Q10: serum lipids levels under statin therapy; conditions: patients #1-#4; 300 mg Q10 daily; WK(0) vs WK(+4)
Experimental: as §2

[4] = 150 mg per day of Coenzyme Q10, within several days
[5] = Day 1, self rated 0-10 (10 = excellent performance)
[6] = Day 2, self rated 0-10 (10 = excellent performance)
[7] = Day 3, self rated 0-10 (10 = excellent performance)
[8] = Day 4, self rated 0-10 (10 = excellent performance)
[9] = Day 5, self rated 0-10 (10 = excellent performance)
[10] = Week 2, self rated 0-10 (10 = excellent performance)
[11] = Week 12, self rated 0-10 (10 = excellent performance)
[12] = 300 mg Q10 daily to WK(+4), a few patients
[13] = WK(+1), 300 mg Q10 daily from WK(0)
[14] = WK(+2), 300 mg Q10 daily from WK(0)
[15] = WK(+4), 300 mg Q10 daily from WK(0)

## COC1=C(OC)C(=O)C(C/C=C(\C)CC/C=C(\C)CC/C=C(\C)CC/C=C(\C)CC/C=C(\C)CC/C=C(\C)CC/C=C(\C)CC/C=C(\C)CC/C=C(\C)CCC=C(C)C)=C(C)C1=O [Q10, Coenzyme Q10]
Muscle pain; [4]
  general sense of well being (patient report): general sense of well being has improved
  muscle pain (patient report): muscle pain had subsided noticeably
Muscle pain; treatment recommenced
  pain after the patient recommenced the Q10 treatment: the pain diminished within a short period
Muscle pain; treatment stopped on one occasion
  muscle pain after the patient stopped taking the Q10: the muscle pain returned
Chronic fatigue syndrome; 30 day period, 100 mg of Q10 per day from day 1, 200 mg per day from day 10
  self assessed (absence of) pain levels, FIG. 1: increasing absence of muscle pain
Chronic fatigue syndrome; Day 1
  Feeling of Well Being: 4
  Wellness Score (out of 60): 14
Chronic fatigue syndrome; Day 1, patient required 2x analgesic tablets
  Absence of Muscle Pain: 3*
Chronic fatigue syndrome; [5]
  Heavy Work (1 hour): 0
  Light Work/Walking: 4
  Sedentary Work: 3
  Work: teacher: 0
Chronic fatigue syndrome; Day 2
  Feeling of Well Being: 4
  Wellness Score (out of 60): 14
Chronic fatigue syndrome; Day 2, patient required 2 × 2 (4) analgesic tablets
  Absence of Muscle Pain: 3**
Chronic fatigue syndrome; [6]
  Heavy Work (1 hour): 0
  Light Work/Walking: 4
  Sedentary Work: 3
  Work: teacher: 0
Chronic fatigue syndrome; Day 3
  Feeling of Well Being: 5
  Absence of Muscle Pain: 7
  Wellness Score (out of 60): 25
Chronic fatigue syndrome; [7]
  Light Work/Walking: 6
  Sedentary Work: 4
  Work: teacher: 0
Chronic fatigue syndrome; Day 3, self rated 0-10, patient performed only ½ hour heavy work
  Heavy Work (1 hour): 3***
Chronic fatigue syndrome; Day 4
  Feeling of Well Being: 6
  Absence of Muscle Pain: 7
  Wellness Score (out of 60): 27
Chronic fatigue syndrome; [8]
  Light Work/Walking: 6
  Sedentary Work: 5
  Work: teacher: 0
Chronic fatigue syndrome; Day 4, self rated 0-10, patient performed only ½ hour heavy work
  Heavy Work (1 hour): 3***
Chronic fatigue syndrome; Day 5
  Feeling of Well Being: 7
  Absence of Muscle Pain: 7
  Wellness Score (out of 60): 30
Chronic fatigue syndrome; [9]
  Light Work/Walking: 7
  Sedentary Work: 6
  Work: teacher: 0
Chronic fatigue syndrome; Day 5, self rated 0-10, patient performed only ½ hour heavy work
  Heavy Work (1 hour): 3***
Chronic fatigue syndrome; Week 2
  Feeling of Well Being: 7
  Absence of Muscle Pain: 7
  Wellness Score (out of 60): 36
Chronic fatigue syndrome; [10]
  Heavy Work (1 hour): 5
  Light Work/Walking: 7
  Sedentary Work: 7
  Work: teacher: 3
Chronic fatigue syndrome; Week 12
  Feeling of Well Being: 9
  Absence of Muscle Pain: 9
  Wellness Score (out of 60): 52
Chronic fatigue syndrome; [11]
  Heavy Work (1 hour): 8
  Light Work/Walking: 9
  Sedentary Work: 9
  Work: teacher: 8
[1]; [12]
  change in PRI scores (overall statement): Marginal decreases
[1]; [13]
  PRI (Pain Rating Index), first score: 22 and 0 and 48 and 19
  PRI (Pain Rating Index), second score: 10 and 0 and 21 and 7
[1]; WK(+1), 300 mg Q10 daily from WK(0), score 0 to 5
  PPI (Present Pain Intensity): 2 and 0 and 3 and 1
[1]; [14]
  PRI (Pain Rating Index), first score: 25 and 9 and 54 and 10
  PRI (Pain Rating Index), second score: 11 and 6 (2×) and 23
[1]; WK(+2), 300 mg Q10 daily from WK(0), score 0 to 5
  PPI (Present Pain Intensity): 2 (3×) and 1
[1]; [15]
  PRI (Pain Rating Index), first score: 8 and 4 and 46 and 9
  PRI (Pain Rating Index), second score: 4 and 1 and 20 and 5
[1]; WK(+4), 300 mg Q10 daily from WK(0), score 0 to 5
  PPI (Present Pain Intensity): 2 (3×) and 1
[1]; WK(−1), baseline before Q10
  PRI (Pain Rating Index), first score: 15 and 10 and 69 and 12
  PRI (Pain Rating Index), second score: 5 (2×) and 3 and 30
[1]; WK(−1), baseline before Q10, score 0 to 5 (5 = excruciating pain)
  PPI (Present Pain Intensity): 2
Statin induced fatigue; [12]
  change in FIS scores (overall statement): Marginal decreases
Statin induced fatigue; [13]
  FIS (Fatigue Impact Scale): 42 and 19 and 91 and 18
Statin induced fatigue; [14]
  FIS (Fatigue Impact Scale): 47 and 44 and 90 and 16
Statin induced fatigue; [15]
  FIS (Fatigue Impact Scale): 43 and 6 and 90 and 16
Statin induced fatigue; WK(−1), baseline before Q10, patients on statin therapy
  FIS (Fatigue Impact Scale): 48 and 39 and 104 and 15
[2]; WK(0), baseline before Q10
  Q10 (blood level): 0.59 µg/mL and 0.46 µg/mL and 1.39 µg/mL
[2]; [15]
  Q10 (blood level): 2.42 µg/mL and 2.49 µg/mL and 1.92 µg/mL and 2.22 µg/mL
Creatine kinase; WK(0), baseline before Q10, normal range 0-200, one line per patient
  CK (creatine kinase concentration): 175 units/L and 69 units/L and 39 units/L and 160 units/L
Creatine kinase; WK(+4), 300 mg Q10 daily from WK(0), normal range 0-200, one line per patient
  CK (creatine kinase concentration): 127 units/L and 78 units/L and 32 units/L and 148 units/L
Alanine aminotransferase; WK(0), baseline before Q10, normal range 0-40, one line per patient
  ALT (alanine aminotransferase concentration): 31 units/L and 14 units/L and 33 units/L
Alanine aminotransferase; WK(+4), 300 mg Q10 daily from WK(0), normal range 0-40, one line per patient
  ALT (alanine aminotransferase concentration): 25 units/L and 11 units/L and 19 units/L and 35 units/L
[3]
  effect on statin therapy with respect to serum cholesterol, HDL-cholesterol or LDL-cholesterol and triglyceride levels: did not significantly affect statin therapy
